Positions of bridges follow the written chain, without caps; N, C: chain ends. Residues, ends and D or L forms follow the SMILES beside them. *: point of attachment. X1 = O=C(O)c1ccc(-c2c3nc(c(-c4ccc(C(=O)O)cc4)c4ccc([nH]4)c(-c4ccc(C(=O)*)cc4)c4nc(c(-c5ccc(C(=O)O)cc5)c5ccc2[nH]5)C=C4)C=C3)cc1; X2 = O=C(O)C/C(=C/C(=O)*)C(=O)O
Tests used:
[1] = tested on: EJ xenograft tumors; assay: In vivo antitumor evaluation in EJ xenograft model (tumor volume, tumor weight, body weight); conditions: 8 mg/kg i.v.; for mean tumor volume at 18 days post injection: six injections at 2-days intervals, n = 6; for Tumor weight: six injections, 18 days
Description: Female BALB/c nude mice (~8 weeks, 18 g) were subcutaneously inoculated with 5 × 10^6 EJ cells resuspended in Matrigel. When the tumor size reached about 100 mm^3, EJ tumor-bearing mice were randomly divided into four groups and administrated with PBS, Gi-F (8 mg/kg in 100 μL PBS), Gi-F-SA (8 mg/kg in 100 μL PBS) and Gi-F-CAA (8 mg/kg in 100 μL PBS) by intravenous injection at 2-days intervals for six times. Individual tumor volume and bodyweight of mouse after different treatment was collected at 2-days intervals for analysis. Mice were killed at 18 days post treatment unless endpoints were exceeded. Moreover, tumors from all groups were harvested under euthanasia and weighed for analysis at the end of treatment.

[2] = tested on: EJ tumor tissues; assay: Tumor MDA content detection; assay type: in vivo, BALB/c nude mice; conditions: for Relative content of MDA: tumor
Description: EJ tumor tissues were collected under euthanasia at the end of treatment and washed with PBS for 3 times. Afterwards, the tumor lysates were collected by centrifugation at 8000 g for 10 min at 4 °C after lysed with Frozen Type Tissuelyser. Finally, the MDA contents were measured by thiobarbituric acid (TBA) reaction with a Malondialdehyde (MDA) Assay Kit (Solarbio Science & Technology Co., Ltd., China, BC0025) based on the manufacturer’s instructions.

[3] = biological target: T1, GPX4 (Homo sapiens, UniProt P36969); assay: Tumor GPX4 activity detection; assay type: in vivo, BALB/c nude mice; parameters: from tissue; host or cells: EJ xenograft tumour tissue from BALB/c nude mice
T1 sequence (P36969 1-197): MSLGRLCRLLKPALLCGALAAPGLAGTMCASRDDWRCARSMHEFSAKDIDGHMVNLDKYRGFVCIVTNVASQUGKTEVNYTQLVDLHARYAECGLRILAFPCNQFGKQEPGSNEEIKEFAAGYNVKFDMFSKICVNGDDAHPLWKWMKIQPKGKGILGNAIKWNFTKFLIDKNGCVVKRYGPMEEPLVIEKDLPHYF
Description: EJ tumor tissues were collected under euthanasia at the end of treatment and washed with PBS for 3 times. Afterwards, the tumor lysates were collected by centrifugation at 5000 rpm for 10 min at 4 °C after lysed by freeze-thaw treatment. Finally, the GPX4 activity were measured with a GPX Assay Kit based on the manufacturer’s instructions.

[4] = tested on: EJ tumor tissues; assay: Tumor GSH content detection; assay type: in vivo, BALB/c nude mice; conditions: for Relative content of GSH: tumor
Description: EJ tumor tissues were collected under euthanasia at the end of treatment and washed with PBS for 3 times. Afterwards, the tumor lysates were collected by centrifugation at 8000 rpm for 10 min at 4 °C after lysed with Frozen Type Tissuelyser. Finally, the GSH contents were measured with a GSH Assay Kit based on the manufacturer’s instructions.

[5] = tested on: EJ xenograft tumor; assay: Penetration assay in tumor frozen sections (Cy labeled)
Description: Firstly, EJ xenograft mice were administrated with Cy labeled Gi-F (8 mg/kg in 100 μL PBS) and Cy labeled Gi-F-CAA (8 mg/kg in 100 μL PBS) by intravenous injection. Afterward, EJ tumor tissues were entirely resected and protected from light. Subsequently, the tumor tissues were fixed with optimum cutting temperature (OCT) compound for 12 h at −20 °C avoiding light. Finally, the fixed tumor tissues were cut into sections and immediately observed with UltraVIEW VoX.

[6] = tested on: EJ cells; assay: Cytotoxicity assay (CCK-8) on EJ cells; conditions: for IC50: pH 7.4
Description: Initially, EJ cells were seeded into 96 well plates at a density of 5 × 10^3 per well and incubated in a CO2 incubator overnight at 37 °C. Subsequently, Gi-F (pH = 7.4), Gi-F-SA (pH = 7.4), NGi-F-CAA (pH = 7.4), NGi-F-CAA (pH = 6.5), Gi-F-CAA (pH = 7.4) and Gi-F-CAA (pH = 6.5) at different concentrations (1, 2, 4, 8, 16, 32, 64, 128 and 256 μM) was added to the cells and further incubated for 48 h. Finally, the cell viability rate was calculated by (Sample wells-Blank wells)/(Control wells-Blank wells) × 100%.

[7] = ζ-potential in PBS; assay type: physicochemical
Description: Supplementary Fig. 12. ζ-potential change of Gi-F-CAA (40 μM) in PBS (0.01 M, pH 7.4 or 6.5) (n=3
experimental repeats). Experiment was independently repeated three times with similar results. Values are
(1 picture or pasted object on this page, not shown here)
Supplementary Fig. 13. ζ-potential of NGi-F-CAA, Gi-F and Gi-F-SA (pH 7.4) (40 μM) in PBS (n=3

[8] = 40 μM in PBS, pH 7.4, mean of n = 3
[9] = EJ tumor tissues, 8 mg/kg i.v., versus PBS, Gi-F and Gi-F-SA

## FeTCPP-LKLKLK(SA)GACNWLPLYPCPV (disulfide) [Gi-F-SA, control conjugate decorated with non-sensitive succinic anhydride (SA) moieties]
[1]
  mean tumor volume at 18 days post injection: 1204 mm^3
[1]; mice 1
  Tumor weight: 1.819 g
[1]; mice 2
  Tumor weight: 1.454 g
[1]; mice 3
  Tumor weight: 1.391 g
[1]; mice 4
  Tumor weight: 1.595 g
[1]; mice 5
  Tumor weight: 1.425 g
[1]; mice 6
  Tumor weight: 1.689 g
[2]; mice 1
  Relative content of MDA: 1.35
[2]; mice 2
  Relative content of MDA: 1.45
[2]; mice 3
  Relative content of MDA: 1.2
[2]; mice 4
  Relative content of MDA: 1.75
[2]; mice 5
  Relative content of MDA: 1.45
[2]; mice 6
  Relative content of MDA: 1.3
[3]; mice 1
  Relative activity of GPX4: 0.79
[3]; mice 2
  Relative activity of GPX4: 0.8
[3]; mice 3
  Relative activity of GPX4: 0.76
[3]; mice 4
  Relative activity of GPX4: 0.79
[3]; mice 5
  Relative activity of GPX4: 0.8
[3]; mice 6
  Relative activity of GPX4: 0.76
[4]; mice 1
  Relative content of GSH: 0.8
[4]; mice 2
  Relative content of GSH: 0.832
[4]; mice 3
  Relative content of GSH: 0.874
[4]; mice 4
  Relative content of GSH: 0.837
[4]; mice 5
  Relative content of GSH: 0.887
[4]; mice 6
  Relative content of GSH: 0.74
[5]; mouse, in vivo, iv, 8 mg/kg
  tumor penetration, fluorescence distribution in tumor sections: penetrate into the tumor interior, while in a week fluorescence intensity
[6]
  IC50: 40 µM
[7]; [8]
  Zeta potential (mV): -21.4 mV

## FeTCPP-LKLKLKGACNWLPLYPCPV (disulfide) [Gi-F]
[1]
  mean tumor volume at 18 days post injection: 1426 mm^3
[1]; mice 1
  Tumor weight: 1.433 g
[1]; mice 2
  Tumor weight: 1.25 g
[1]; mice 3
  Tumor weight: 1.087 g
[1]; mice 4
  Tumor weight: 1.055 g
[1]; mice 5
  Tumor weight: 0.939 g
[1]; mice 6
  Tumor weight: 1.259 g
[2]; mice 1
  Relative content of MDA: 2.1
[2]; mice 2
  Relative content of MDA: 2.6
[2]; mice 3
  Relative content of MDA: 2.35
[2]; mice 4
  Relative content of MDA: 2.5
[2]; mice 5
  Relative content of MDA: 2.3
[2]; mice 6
  Relative content of MDA: 2.45
[3]; mice 1
  Relative activity of GPX4: 0.57
[3]; mice 2
  Relative activity of GPX4: 0.52
[3]; mice 3
  Relative activity of GPX4: 0.57
[3]; mice 4
  Relative activity of GPX4: 0.57
[3]; mice 5
  Relative activity of GPX4: 0.52
[3]; mice 6
  Relative activity of GPX4: 0.57
[4]; mice 1
  Relative content of GSH: 0.74
[4]; mice 2
  Relative content of GSH: 0.713
[4]; mice 3
  Relative content of GSH: 0.713
[4]; mice 4
  Relative content of GSH: 0.681
[4]; mice 5
  Relative content of GSH: 0.676
[4]; mice 6
  Relative content of GSH: 0.763
[5]; mouse, in vivo, iv, 8 mg/kg
  tumor penetration, fluorescence distribution in tumor sections: only distributed around the periphery of tumor tissues
[6]
  IC50: 11.3 µM
[7]; [8]
  Zeta potential (mV): -8.4 mV

## CC(C)C[C@H](NC(=O)c1ccc(-c2c3nc(c(-c4ccc(C(=O)O)cc4)c4ccc([nH]4)c(-c4ccc(C(=O)O)cc4)c4nc(c(-c5ccc(C(=O)O)cc5)c5ccc2[nH]5)C=C4)C=C3)cc1)C(=O)N[C@@H](CCCCNC(=O)/C=C(/CC(=O)O)C(=O)O)C(=O)N[C@@H](CC(C)C)C(=O)N[C@@H](CCCCN)C(=O)N[C@@H](CC(C)C)C(=O)N[C@@H](CCCCNC(=O)/C=C(/CC(=O)O)C(=O)O)C(=O)NCC(=O)N[C@@H](C)C(=O)N[C@H]1CSSC[C@@H](C(=O)N2CCC[C@H]2C(=O)N[C@H](C(=O)O)C(C)C)NC(=O)[C@@H]2CCCN2C(=O)[C@H](Cc2ccc(O)cc2)NC(=O)[C@H](CC(C)C)NC(=O)[C@@H]2CCCN2C(=O)[C@H](CC(C)C)NC(=O)[C@H](Cc2c[nH]c3ccccc23)NC(=O)[C@H](CC(N)=O)NC1=O [Gi-F-CAA] (X1-LK(X2)LKLK(X2)GACNWLPLYPCPV-OH; disulfide 9-17; C-terminus assumed)
[1]
  mean tumor volume at 18 days post injection: 552 mm^3
[1]; mice 1
  Tumor weight: 0.398 g
[1]; mice 2
  Tumor weight: 0.419 g
[1]; mice 3
  Tumor weight: 0.47 g
[1]; mice 4
  Tumor weight: 0.318 g
[1]; mice 5
  Tumor weight: 0.548 g
[1]; mice 6
  Tumor weight: 0.402 g
[2]; [9]
  LPO levels of tumor tissues: elevation
[2]; mice 1
  Relative content of MDA: 4.75
[2]; mice 2
  Relative content of MDA: 4.25
[2]; mice 3
  Relative content of MDA: 4.65
[2]; mice 4
  Relative content of MDA: 5.15
[2]; mice 5
  Relative content of MDA: 4.25
[2]; mice 6
  Relative content of MDA: 4.75
[3]; mice 1
  Relative activity of GPX4: 0.21
[3]; mice 2
  Relative activity of GPX4: 0.22
[3]; mice 3
  Relative activity of GPX4: 0.2
[3]; mice 4
  Relative activity of GPX4: 0.21
[3]; mice 5
  Relative activity of GPX4: 0.22
[3]; mice 6
  Relative activity of GPX4: 0.2
[4]; [9]
  GSH levels of tumor tissues: substantial reduction of GSH levels
[4]; mice 1
  Relative content of GSH: 0.248
[4]; mice 2
  Relative content of GSH: 0.322
[4]; mice 3
  Relative content of GSH: 0.359
[4]; mice 4
  Relative content of GSH: 0.285
[4]; mice 5
  Relative content of GSH: 0.331
[4]; mice 6
  Relative content of GSH: 0.276
[5]; EJ xenograft mice, Cy-labeled, 8 mg/kg i.v.
  tumor penetration, fluorescence distribution in tumor sections: distributed all over the tumor tissues
[6]; EJ cells, pH 6.5, 48 h, Fer-1, Supplementary Fig. 26
  cytotoxicity with ferroptosis inhibitor Fer-1: successfully rescued by Fer-1
[7]; 40 μM in PBS 0.01 M, pH 6.5
  ζ-potential change after incubation at pH 6.5: increased considerably
[7]; pH 6.5, 0 min, mean
  Zeta potential (mV): -25.5 mV
[7]; pH 6.5, 10 min, mean
  Zeta potential (mV): -19.8 mV
[7]; pH 6.5, 30 min, mean
  Zeta potential (mV): -12.4 mV
[7]; pH 6.5, 60 min, mean
  Zeta potential (mV): -7.6 mV
[7]; pH 6.5, 90 min, mean
  Zeta potential (mV): -6.4 mV
[7]; pH 6.5, 120 min, mean
  Zeta potential (mV): -5.5 mV
[7]; pH 7.4, 0 min, mean
  Zeta potential (mV): -27.3 mV
[7]; pH 7.4, 10 min, mean
  Zeta potential (mV): -25.6 mV
[7]; pH 7.4, 30 min, mean
  Zeta potential (mV): -24.4 mV
[7]; pH 7.4, 60 min, mean
  Zeta potential (mV): -23.4 mV
[7]; pH 7.4, 90 min, mean
  Zeta potential (mV): -22.6 mV
[7]; pH 7.4, 120 min, mean
  Zeta potential (mV): -22.5 mV

From article PMC10784468 (Nature Communications, 2024)
